Columns and labels:
Format in all cases: cell-based, Escherichia coli
[1] = test system: E. coli W3110; assay: Propidium iodide (PI) assay of membrane permeability; settings: E. coli W3110 logarithmic-phase, 15 min treatment with 5 μM peptide, PI 25 μg/mL 15 min (Fig. 5A)
Description: Propidium Iodide (PI) assay
Thaw the previously preserved E. coli W3110 cells from the -80 °C freezer. Scrape a small amount and inoculate it into 1 mL of LB liquid medium. Culture overnight in a 37°C shaker. Next day, inoculate the strain into fresh LB liquid medium at a 1:100 ratio and incubate at 37 °C until the OD600 reaches approximately 0.47 to 0.53. Take 100 μL of the E. coli W3110 cells and centrifuge for 2 min at 13,000 rpm. Discard the supernatant. For the untreated group, resuspend the cells in 100 μL of PBS. For the peptide treatment group, resuspend the cells in 99 μL of ddH2O and add 1 […]
μL of 0.5 mM of the different peptides. Mix thoroughly and let react for 15 min. After the treatment, take 80 μL of each sample and incubate with PI at a final concentration of 25 μg/mL for 15 min.
After incubation, wash the samples with the same amount of PBS, centrifuge, and resuspend at a 10-fold concentration. Observe the images using a Nikon Eclipse Ci-L Plus microscope. […]
(§1) Incubate overnight in a 37°C shaker. […]
Centrifuge again at
6100g for 10 min, discard the supernatant, and add 500 μL of ddH2O containing 2.5% glutaraldehyde. Resuspend and fix the cells overnight at 4°C. Centrifuge at 6100g for 10 min, remove the supernatant, and wash twice with ddH2O, letting it stand for 15 min each time, followed by centrifugation at 6100g for 10 min. Discard the supernatant. Dehydrate the sample with ethanol at concentration gradients of 30%, 60%, and 90%, without resuspension, centrifuging at 6100g for […]

[2] = test system: E. coli W3110; assay: Protein leakage assay; settings: E. coli W3110, 5 μM peptide, 15 min, pellet analysed by SDS-PAGE, compared to R9-treated sample (Fig. S10)
Description: Thaw the previously preserved E. coli W3110 cells from the -80 °C freezer. Scrape a small amount and inoculate it into 1 mL of LB liquid medium. Incubate overnight in a 37°C shaker. Next day, transfer the culture to fresh LB liquid medium at a 1:100 inoculation ratio and incubate at 37 °C until the OD600 reaches approximately 0.47 to 0.53. Collect 300 μL of the E. coli W3110 cells and centrifuge for 2 min at 13,000 rpm, discarding the supernatant afterward. Resuspend the untreated group in 300 μL of PBS, and the peptide treatment group in 297 μL of ddH2O. Add 3 μL of 0.5 mM different peptides to the treatment group, mix well, and allow to react for 15 min. After the treatment, resuspend all samples in 15 μL of 6×SDS loading buffer and 15 μL of 10% SDS. All samples were heated at 99.9°C for 15 min, followed by 10% SDS-PAGE analysis and staining with Coomassie brilliant blue R250. […]
as §1

[3] = test system: E. coli W3110; assay: Scanning electron microscopy of cell morphology; settings: E. coli W3110 logarithmic-phase, 4 h treatment at 2 μM and 5 μM (Fig. 5B, S11)
Description: Thaw the previously preserved E. coli W3110 cells from the -80 °C freezer. […]
Scanning electron microscopy
Thaw the previously preserved E. coli W3110 cells from the -80°C freezer. Scrape a small amount and inoculate it into 1 mL of LB liquid medium. Incubate overnight in a 37°C shaker. The next day, inoculate the strain into fresh LB liquid medium at a 1:100 ratio and incubate at 37°C until the OD600 reaches approximately 0.47 to 0.53. Take 500 μL of E. coli W3110 cells, centrifuge for 10 min at 4000 rpm, and discard the supernatant. Resuspend the cells in 500 μL of PBS, then centrifuge again at 4000 rpm for 10 min and discard the supernatant. Dissolve various macrocyclic peptides in DMSO and dilute to the required concentration. Resuspend the untreated group in 500 μL of PBS.
For the peptide treatment group, resuspend in 495 μL of ddH2O, add 5 μL of 0.2 mM or 0.5 mM peptides, mix well, and let react for 4 h.
After the treament, spot 4 μL of the sample on plates. Perform the first ten-fold dilution and mix, then continue with the second to fifth ten-fold dilutions. Incubate the plates inverted overnight in a 37°C incubator. Scan and count the colonies. For the remaining 492 μL, centrifuge at 6100g for 10 min, discard the supernatant, add 500 μL of ddH2O, and let it stand for 15 min. Centrifuge again at 6100g for 10 min, discard the supernatant, and add 500 μL of ddH2O containing 2.5% glutaraldehyde. Resuspend and fix the cells overnight at 4°C. Centrifuge at 6100g for 10 min, remove the supernatant, and wash twice with ddH2O, letting it stand for 15 min each time, followed by centrifugation at 6100g for 10 min. Discard the supernatant. Dehydrate the sample with ethanol at concentration gradients of 30%, 60%, and 90%, without resuspension, centrifuging at 6100g for […]
10 min and discarding the supernatant after each step. Finally, use 100% ethanol, rest for 15 min, centrifuge at 6100g for 10 min, discard the supernatant, and repeat with 100% ethanol, leaving about 10 μL. Then the critical point was dried and sprayed with gold, and the images were observed by […]
Prediction of binding sites between peptides and the BAM complex
Firstly, the fpocket algorithm was used, a rapid method for pocket prediction based on the three-dimensional structure of BAM complex (PDB ID: 5AYW). This method establishes a grid surrounding the protein, positioning alpha spheres on grid points devoid of spatial conflicts with protein atoms, subsequently utilizing a clustering algorithm to ascertain whether these regions constitute potential binding pockets. Alpha spheres were designated with radii ranging from 3.4Å to 6.2Å, with a prerequisite of at least 15 alpha spheres for a region to be considered a pocket. […]
PepNN evaluated each amino acid for its potentiality as a peptide binding site. […]

## Ac-DYLIWYSRSHPFRVCGS(Acp)RRRRRRRRR-NH2 (sidechain bridge or staple) [BAM-D1-R9, BAM-D1 conjugated with cell-penetrating peptide R9]
[1]
  PI red fluorescence (cell membrane permeability): notable red fluorescence intensity
[2]
  cellular protein leakage: partial cellular protein leakage
[3]
  morphological changes by scanning electron microscopy: severe damage in the cell shape and even lysis

— paper PMC11310889, “Ribosomal translation of fluorinated non-canonical amino acids for de novo biologically active fluorinated macrocyclic peptides” (Chemical Science, 2024)
